This is an account of results in patent US6194143A, “Substrates for human cytomegalovirus protease” (Boehringer Ingelheim (Canada) Ltd., priority 1998, dated 2001).

Data set [1] has as its target T1, HCMV protease (Human cytomegalovirus, UniProt P16753).
T1 construct: UL80 gene from HCMV strain AD169, aa 1-256; made in house
Briefly: Inhibitory activity on HCMV protease (IC50). Type of data set: biochemical. How it is done:
The substrate of formula 1 was used to implement a 100 nM HCMV protease assay for routine screening of inhibitors. However rapid progress in the structure-activity relationship (SAR) studies eventually required a reduction of the enzyme concentration in order to differentiate between potent compounds. Indeed an IC50 value cannot be lower than half the enzyme concentration in the assay. Reducing the enzyme therefore permits accurate determination of the potency of active inhibitors.
The large reduction in Km was responsible for this substantial increase in activity and reflected the anticipated improvement in binding. The inhibitory activity of the N-terminal product ABz-Tbg-Tbg-Asn(Me)2 -Ala-OH was determined to establish if it could interfere with the course of the reaction.

For data set [2], the target named is T1, HCMV protease. Briefly: Mode of inhibition by Dixon-plot analysis with substrate 2. The following applies: Dixon-plot of initial rate of hydrolysis at different substrate 2 and inhibitor concentrations; substrate 0.4 to 2.5 Km. Type of data set: biochemical. An excerpt: FIG. 1 illustrates the inhibitory effect of a peptide inhibitor on HCMV protease at various concentrations of an improved substrate of this application.
The convenient use of fluorescence in this experiment was possible since a range of substrate concentrations from 0.4 to 2.5 Km was permitted. Substrate 1 could not be used in this application since its Km value is well above the inner filter limit.

The nature of data set [3]: Stability of 10 mM DMSO stock solutions at 4° C. The class given is physicochemical. The following applies: 10 mM in DMSO, stored at 4° C. As for the experimental part:
(§1) Stock solutions (10 mM) in DMSO of the compounds prepared in examples 2, 3, 4, 5 and 6 were stored at 4° C. […] Aliquoted samples of HCMV protease 50 μM (1.4 mg/ml) were kept at -80° C. in storing buffer without detectable loss of activity over an extended period of more than a year. The calculated molecular mass of wild-type HCMV protease was 28042 Da. The concentration of enzyme on which the calculations of the turnover number, kcat, and the specificity constant, kcat /Km, were derived was expressed in terms of total monomer concentration.

A short description of data set [4]: Solubility of substrate. Type of data set: physicochemical.
For data set [5], the target named is T1, HCMV protease. Briefly: HCMV protease fluorometric assay of substrate cleavage. The class given is biochemical. As to conditions: for kcat/Km, fold greater than for the substrate of formula 1 (unoptimized substrate): compared with substrate of formula 1. How it is done: (§2) Preparation of recombinant wild-type HCMV protease PCR amplified HCMV protease gene from genomic DNA (UL80 gene from HCMV strain AD169, aa 1-256) was cloned in the NdeI/BamHl restriction sites of the plasmid vector pET-17b and expressed in Escherichia Coli strain BL21(DE3)pLYSs. Following expression by induction with IPTG, cells were harvested and resuspended in lysis buffer (50 mM Tris/HCl pH 8.0, 1 mM EDTA, 1 mM DTT, 25 mM NaCl, and 1 mM PMSF) and sonicated for complete lysis and DNA breakage. Protease inclusion bodies were harvested by centrifugation. The harvested material was washed twice in lysis buffer containing 0.1% nonaethylene glycol octylphenyl ether (NP-40, Sigma Chemical Co.). Solubilization and denaturation of the harvested material were performed by resuspending the inclusion bodies in 100 mM Tris/HCl pH 8.0, 1 mM EDTA, 100 mM DTT, 50 mM NaCl, and 7 M urea and incubating at 37° C. for 2 h. After centrifugation to eliminate insoluble matter, the supernatant was extensively dialyzed in 50 mM MES pH 5.0, 0.1 mM EDTA, 10 mM DTT, and 7 M urea for cation exchange chromatography on Resource S column. The resulting pool of protease-containing fractions was then dialyzed in 25 mM Tris/HCl pH 7.8, 1 mM EDTA, and 1 M urea and diluted to ≈100 μg/ml to which 0.2 mM oxidized glutathione and 2 mM reduced glutathione were added. Incubation was performed overnight at 4° C. with gentle shaking and renaturation was then completed by extensive dialysis in 25 mM Tris/HCl pH 7.8, 1 mM EDTA, 1 mM DTT, and 100 mM NaCl followed by dialysis in storing buffer (20 mM acetate pH 5.0, 0.1 mM EDTA, 1 mM DTT, and 50 mM NaCl) before concentration of the sample to give the desired protease.
Stock solutions (10 mM) in DMSO of the compounds prepared in examples 2, 3, 4, 5 and 6 were stored at 4° C. […] Aliquoted samples of HCMV protease 50 μM (1.4 mg/ml) were kept at -80° C. in storing buffer without detectable loss of activity over an extended period of more than a year. The calculated molecular mass of wild-type HCMV protease was 28042 Da. […]

Data set [6] has as its system HCMV protease. The following applies: prior literature reports; cited from earlier work.
Data set [7] deals with T1, HCMV protease. The class given is biochemical. As to conditions: for Km / kcat / kcat/KM (specificity constant): 200-500 nM HCMV protease, determined by HPLC. How it is done:
as §2, §1
HPLC analysis. Specificity constant, kcat /Km, and individual parameters kcat & Km for the peptide substrate of Example 2 were determined by HPLC monitoring of the initial rate of appearance of the N-terminus cleavage product at various substrate concentrations. Incubation buffer contained 50 mM Tris/HCl pH 8, 0.5 M Na2 SO4, 50 mM NaCl, 0.1 mM EDTA, 1 mM TCEP, 3% DMSO v/v, & 0.05% w/v casein to which 20-500 μM substrate was added. Following equilibration at 30° C., the reactions were initiated by addition of 50 nM HCMV protease (total monomer concentration) from a 2.5 μM stock solution in assay buffer and quenched at regular intervals with 1% TFA up to ≈25% total hydrolysis. The aliquots were injected on a C8 reversed-phase column using a linear gradient of acetonitrile in aqueous 3mM SDS containing 0.05% H3 PO4 (22 to 28% acetonitrile at 2 min, to 30% at 4 min, to 50% at 6 min at a constant flow rate of 4 ml/min). A calibration curve of the N-terminus product was used to estimate the extent of the conversion (retention time=2.7 min). The data was fitted to the non-linear regression analysis of the Michaelis-Menten equation by the kinetic software GRAFIT (Grafit, Erithacus Software Ltd, 1989-1992, Version 3.0, Leatherbarrow, R. J., London, U.K.). A similar protocol was adopted for the peptide substrates of Examples 5 and 6. In this case the enzyme concentration used was respectively 500 nM and 200 nM. The HPLC gradient was 25 to 38% acetonitrile at 11 min, to 100% at 13 min at a constant flow rate of 4 ml/min.

Square brackets hold non-standard residues; d marks the D form. Peptide text beside a SMILES is read from it. * marks the point of attachment. Tyr(3-NO2) = N[C@@H](Cc1ccc(O)c([N+](=O)[O-])c1)C(=O)O; AMC = Cc1cc(=O)oc2cc(N*)ccc12; Tle = CC(C)(C)[C@H](N)C(=O)O; 2Abz = Nc1ccccc1C(=O)O

T1 sequence (P16753 1-256): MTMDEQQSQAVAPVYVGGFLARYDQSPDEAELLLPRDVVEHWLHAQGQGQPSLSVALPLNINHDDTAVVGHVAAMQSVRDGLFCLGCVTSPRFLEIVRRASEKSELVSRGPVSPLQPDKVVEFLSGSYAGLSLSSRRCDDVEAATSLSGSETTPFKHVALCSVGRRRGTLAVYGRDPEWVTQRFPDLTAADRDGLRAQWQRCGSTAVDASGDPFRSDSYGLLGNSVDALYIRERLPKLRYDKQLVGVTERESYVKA

One may read the IC50 as the concentration that gives 50% inhibition. In turn, `C[C@H](NC(=O)[C@H](CC(=O)N(C)C)NC(=O)[C@@H](NC(=O)[C@@H](NC(=O)c1ccccc1N)C(C)(C)C)C(C)(C)C)C(=O)O` [ABz-Tbg-Tbg-Asn(Me)2 -Ala-OH] (H-[2Abz][Tle][Tle]D(NMe2)A-OH) returned an IC50 in data set [1] of more than 75 µM.

Take `CC(NC(=O)[C@H](CC(=O)N(C)C)NC(=O)[C@@H](NC(=O)CC(C)(C)C)C(C)(C)C)C(=O)C(=O)NCc1ccccc1` (stereo partly drawn) [DATbg-Tbg-Asn(Me2)-Ala-CONHCH2Ph]: the mode of inhibition result in data set [2] is on record as “competitive”.

Regarding `CC(C)C[C@H](NC(=O)[C@H](CCCNC(=N)N)NC(=O)[C@H](CO)NC(=O)[C@H](CO)NC(=O)[C@H](C)NC(=O)[C@H](CC(N)=O)NC(=O)[C@@H](NC(=O)[C@@H](NC(=O)c1ccccc1N)C(C)C)C(C)C)C(=O)N[C@@H](Cc1ccc(O)c([N+](=O)[O-])c1)C(=O)N[C@@H](CCCNC(=N)N)C(=O)O` [Substrate 1] (H-[2Abz]VVNASSRL[Tyr(3-NO2)]R-OH), in data set [3], the “stability of compound in stock solution” value is “stable for several weeks”. The solubility entry in data set [4] is reported as “limited solubility”.

Take `CC(C)C[C@H](NC(=O)[C@H](CCCNC(=N)N)NC(=O)[C@H](CO)NC(=O)[C@H](CO)NC(=O)[C@H](C)NC(=O)[C@H](CC(=O)N(C)C)NC(=O)[C@@H](NC(=O)[C@@H](NC(=O)c1ccccc1N)C(C)(C)C)C(C)(C)C)C(=O)N[C@@H](Cc1ccc(O)c([N+](=O)[O-])c1)C(=O)N[C@@H](CCCNC(=N)N)C(=O)O` [Substrate 2, ABz-Tbg-Tbg-Asn(Me)2 -Ala-Ser-Ser-Arg-Leu-Tyr(3-NO2)-Arg-OH] (H-[2Abz][Tle][Tle]D(NMe2)ASSRL[Tyr(3-NO2)]R-OH): the “kcat/Km, fold greater than for the substrate of formula 1 (unoptimized substrate)” value in data set [5] was 60 fold. Also, the “stability of compound in stock solution” value in data set [3] is reported as “stable for several weeks”.

`CC(=O)N[C@H](C(=O)N[C@H](C(=O)N[C@@H](CC(=O)N(C)C)C(=O)N[C@@H](C)C(=O)Nc1ccc2c(C)cc(=O)oc2c1)C(C)(C)C)C(C)(C)C` [Substrate 3, N-Acetyl-Tbg-Tbg-Asn(Me)2 -Ala-AMC] (Ac-[Tle][Tle]D(NMe2)A-{AMC}): the “kcat/Km, fold greater than for the substrate of formula 1 (unoptimized substrate)” value in data set [5] worked out at 10 fold. Further, the “kcat/Km, fold smaller than the substrate of formula 2” value in data set [5] (compared with substrate of formula 2) came out at 6 fold. Moreover, the “stability of compound in stock solution” value in data set [3] was “stable for several weeks”.

For orientation: Km means the concentration of substrate that gives half-maximal velocity. What is called kcat is the number of substrate molecules converted per active site and unit of time at saturation. In general, kcat/KM refers to the turnover number divided by the Michaelis constant. ABz-GVVNA-SSRLAY(3-NO2)G: in data set [6], the Km is 134 µM, the catalytic constant (kcat) is 0.37 s⁻¹ and the kcat/KM was 2750 M⁻¹ s⁻¹.

Turning to DABCYL-RGVVNA-SSRLA-EDANS, the specificity constant (kcat/KM) in data set [6] was 796 M⁻¹ s⁻¹.

In the case of DABCYL-RRVVNA-S-Aba-RLD(EDANS)-NH2, the Km in data set [6] is 3 µM.

Consider Y(3-NO2)GVVNA-SSRLA-ABz-K, for which the kcat/KM in data set [6] is 3167 M⁻¹ s⁻¹.

“d-Biotin-Arg-Gly-Tbg-Tbg-Asn (Me) 2 -Ala-Ser-Ser-Arg-Leu-Ala-Tyr-NH2 [Substrate 5]”: in data set [7], the Km came to 19 µM, the catalytic constant (kcat) worked out at 0.045 s⁻¹ and the “kcat/KM (specificity constant)” value came out at 2370 M⁻¹ s⁻¹.

For “d-Biotin-Arg-Gly-Tbg-Tbg-Asn(Me)2 -Ala-Ser-Ser-Arg-Leu-Ala-Tyr(^125,)-NH2 [Substrate 13a]”, in data set [7], the Km worked out at 19 µM, the catalytic constant (kcat) was 0.045 s⁻¹ and the “kcat/KM (specificity constant)” value came to 2370 M⁻¹ s⁻¹. In data set [7] (as measured by HPLC), the “kcat/KM, fold greater compared to the substrate of formula 12a” value is 12 fold.

With “d-Biotin-Arg-Gly-Val-Val-Asn-Ala-Ser-Ser-Arg-Leu-Ala-Tyr-NH2 [Substrate 4]”, in data set [7], the Km amounted to 422 µM, the kcat worked out at 0.086 s⁻¹ and the “kcat/KM (specificity constant)” value came out at 205 M⁻¹ s⁻¹.
